The structures appear in SMILES notation.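 Interpolation was linear, between the two tested concentrations surrounding the appropriate level; five concentrations were tested over 48 hours in 96-well plates. At the TGI there is no net growth.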 Some results are limits rather than exact numbers.

Among the test systems are A549 NSCLC; UACC-62 melanoma; SK-MEL-2 melanoma; HL-60(TB) leukemia; NCI-H522 lung; CAKI-1 renal; SF-539 CNS; DU-145 prostate; PC-3 prostate; BT-549 breast.
What all share (assay): NCI tumour cell line growth inhibition, 48 h

As to `O=C(N/N=C/c1cc(-c2ccccc2Cl)c(-c2ccccc2Cl)o1)c1ccncc1`, the TGI in the assay on A549 NSCLC, with UACC-62 melanoma, in the assay with SK-MEL-2 melanoma, in the assay with HL-60(TB) leukemia, in the assay on NCI-H522 lung and with CAKI-1 renal was more than 100 µM throughout. In the assay with SF-539 CNS, this molecule registered a TGI of more than 100 µM.
With `COc1ccc(/C=N/NC(=O)c2ccccc2Nc2ccccc2C(=O)N/N=C/c2ccc(OC)c(OC)c2)cc1OC`, the TGI in the assay with A549 NSCLC, with DU-145 prostate, in the assay on UACC-62 melanoma, with SK-MEL-2 melanoma, in the assay with HL-60(TB) leukemia and in the assay on CAKI-1 renal was more than 100 µM each time. Moreover, the TGI with PC-3 prostate and with BT-549 breast was more than 100 µM throughout.
In the case of `COC[C@H](Cc1ccccc1)N=Cc1ccccc1`, the TGI in the assay with A549 NSCLC, with DU-145 prostate, in the assay with UACC-62 melanoma, in the assay on SK-MEL-2 melanoma, in the assay on NCI-H522 lung and with CAKI-1 renal was more than 100 µM each time. The TGI in the assay with PC-3 prostate and with BT-549 breast was more than 100 µM throughout.
Consider `CC(C)(C)C(=O)C(C#N)C(=O)C(C)(C)C`, for which the TGI in the assay with A549 NSCLC, in the assay with DU-145 prostate, with SK-MEL-2 melanoma, in the assay on HL-60(TB) leukemia, with NCI-H522 lung and with CAKI-1 renal was more than 100 µM each time. Further, the TGI with PC-3 prostate and in the assay on SF-539 CNS was more than 100 µM each time.
For `CC1=C2CC3=C(C)C(=O)O[C@H]3C[C@@H](C)[C@@H]2CC1`, the TGI with UACC-62 melanoma, in the assay on SK-MEL-2 melanoma, in the assay on HL-60(TB) leukemia, in the assay with CAKI-1 renal, in the assay with PC-3 prostate and with BT-549 breast was more than 100 µM throughout.
In the case of `c1ccc(C2(c3cc4ccccc4[nH]3)OCCO2)cc1`, the TGI with A549 NSCLC, with DU-145 prostate, in the assay with UACC-62 melanoma, in the assay on SK-MEL-2 melanoma, in the assay on CAKI-1 renal and in the assay with PC-3 prostate was more than 100 µM each time. Further, the TGI in the assay with SF-539 CNS and in the assay with BT-549 breast was more than 100 µM each time.
Turning to `CC(C)Oc1c(O)c2c3c(oc(=O)n3C=CC2c2ccccc2F)c1OC(C)C` (configuration not stated), the TGI is more than 100 µM in the assay with A549 NSCLC; more than 100 µM in the assay on DU-145 prostate; more than 100 µM in the assay with UACC-62 melanoma; 34.5 µM in the assay with SK-MEL-2 melanoma; 44.3 µM in the assay on HL-60(TB) leukemia; more than 100 µM with NCI-H522 lung. Further, the TGI was more than 100 µM in the assay with CAKI-1 renal, 40.1 µM in the assay with PC-3 prostate and 52.6 µM with SF-539 CNS.
Turning to `COc1ccc(C2Oc3cc(OC)c(O)cc3[C@@H]2C)cc1` (some centres not stated), the TGI in the assay with A549 NSCLC is more than 100 µM; in the assay with SK-MEL-2 melanoma, more than 100 µM; in the assay on HL-60(TB) leukemia, 47.4 µM; in the assay with NCI-H522 lung it was 38 µM; with CAKI-1 renal it was 96.2 µM; in the assay on SF-539 CNS it was more than 100 µM.
Consider `O=C1CSC(c2ccc(Cl)cc2)N1c1ccc(-n2c(-c3ccccc3)nc3ccccc3c2=O)cc1` (configuration not stated), for which the TGI with A549 NSCLC, in the assay with UACC-62 melanoma, in the assay on SK-MEL-2 melanoma, with NCI-H522 lung, in the assay with CAKI-1 renal and in the assay on PC-3 prostate was more than 100 µM throughout. Also, the TGI in the assay with SF-539 CNS and in the assay on BT-549 breast was more than 100 µM in each case.
As for `COc1cc2c(oc(=O)c3c4oc([Si](C)(C)C)cc4cc(OC)c23)c2cccc(O)c12`, the TGI in the assay on A549 NSCLC, with UACC-62 melanoma, in the assay with SK-MEL-2 melanoma, in the assay with HL-60(TB) leukemia, in the assay with NCI-H522 lung and with CAKI-1 renal was more than 100 µM throughout. The molecule also came in with a TGI in the assay with SF-539 CNS of more than 100 µM.
Take `O=c1n(CCO)nc2n1CCCN2`: the TGI with A549 NSCLC, in the assay with DU-145 prostate, with UACC-62 melanoma, in the assay on SK-MEL-2 melanoma, with HL-60(TB) leukemia and with PC-3 prostate was more than 100 µM in each case. Also, the TGI with SF-539 CNS and in the assay on BT-549 breast was more than 100 µM each time.
Regarding `CCC(c1ccc(N(C)C)cc1)C1NC(=S)NC1=O` (configuration not stated), the TGI in the assay with A549 NSCLC is more than 100 µM; in the assay with DU-145 prostate it was more than 100 µM; in the assay with HL-60(TB) leukemia, 46.3 µM; with NCI-H522 lung, more than 100 µM; in the assay on CAKI-1 renal it was more than 100 µM; with SF-539 CNS it was more than 100 µM.
Turning to `COc1cc2c(cc1C)NC(=O)/C2=C/c1c(Cl)n(C)c2ccccc12`, the TGI with A549 NSCLC worked out at 42 µM; in the assay with DU-145 prostate, 23.6 µM; in the assay on UACC-62 melanoma, 26.8 µM; in the assay with SK-MEL-2 melanoma, 30.4 µM; in the assay with HL-60(TB) leukemia, 8.94 µM; in the assay with CAKI-1 renal it was 24.4 µM. Besides, the results for the TGI in the assay with PC-3 prostate, with SF-539 CNS and in the assay with BT-549 breast were 29.6 µM, 56.5 µM and 24.4 µM, respectively.
As to `Cc1cn2cc(-c3ccncc3)nc2s1`, the TGI with A549 NSCLC was more than 100 µM; with UACC-62 melanoma it was more than 100 µM; with SK-MEL-2 melanoma, more than 100 µM; in the assay on HL-60(TB) leukemia it was more than 41.6 µM; with NCI-H522 lung, more than 100 µM; in the assay with CAKI-1 renal, more than 100 µM. Moreover, the TGI with SF-539 CNS was more than 100 µM.
With `O=c1[nH]c2cccccc-2c1-c1nc2ccccc2[nH]1`, the TGI in the assay on A549 NSCLC is more than 100 µM; with UACC-62 melanoma it was 44.9 µM; in the assay with SK-MEL-2 melanoma, 77.1 µM; with HL-60(TB) leukemia, more than 100 µM; in the assay on NCI-H522 lung, 42.3 µM; in the assay on CAKI-1 renal it was more than 100 µM. The same molecule showed a TGI in the assay with SF-539 CNS of 54.3 µM.
Turning to `COc1ccccc1C1C(Cl)C(=O)N1NC(=O)Cc1ccccc1` (configuration not stated), the TGI in the assay on A549 NSCLC, with UACC-62 melanoma, with SK-MEL-2 melanoma, with HL-60(TB) leukemia, with NCI-H522 lung and in the assay with CAKI-1 renal was more than 100 µM in each case.
Regarding `Cc1ccc(-c2c(C#N)c(O)n(NS(=O)(=O)c3ccccc3)c(=O)c2C#N)cc1`, the TGI in the assay with A549 NSCLC, in the assay on UACC-62 melanoma, with SK-MEL-2 melanoma, in the assay on HL-60(TB) leukemia, in the assay with NCI-H522 lung and in the assay with CAKI-1 renal was more than 100 µM throughout. Besides, the TGI with PC-3 prostate, in the assay with SF-539 CNS and in the assay with BT-549 breast was more than 100 µM throughout.

Source of the values: PubChem BioAssay (NCI).
